Experimental data from patent US6989371B1, “Bombesin analogs for treatment of cancer” (Dabur Research Foundation, priority 1996, dated 2006).
Non-standard residues stand in square brackets, D forms with d. Residues, ends and D or L forms follow the SMILES beside them. *: point of attachment. Octanoyl = CCCCCCCC(=O)*; Ac5c = NC1(C(=O)O)CCCC1; Aib = CC(C)(N)C(=O)O

Tests used:
Test in all cases: MTT cytotoxicity assay, 48 hours (Example 14)
HBL 100 (Breast) = format: cell-based, human
Method: (§1) The cytotoxic effect of peptide sequences SEQ ID NO: 9, SEQ ID NO: 10, SEQ ID NO: 11 and SEQ ID NO: 12, were studied by MTT assay which is based on the principle of uptake of MTT[3-[4,5-dimethylthiazol-2-yl]-2,5-diphenyl tetrazolium bromide], a tetrazolium salt by the metabolically active cells where it is metabolized by active mitochondria into a blue colored formazan product which can be read spectrophotometrically. Tumor cells KB (oral squamous). HuTu80 (Stomach), PTC and SW620 (colon), U87MG (Glioblastoma), HBL 100. (Breast), HeP2 (laryngeal) and L132 (Lung) were incubated with the peptide analogs for 48 hours at 37° C. in a 96-well culture plate, followed by the addition of 100 μl MTT and further incubation of 1 hour. The formazon crystals formed inside the cells were dissolved with a detergent comprising 10% Sodium dodecyl sulfate and 0.01 N HCl and optical density read on a multiscan ELISA reader. The optical density was directly proportional to the number of proliferating and metabolically active cells.

HuTu80 (Stomach) = format: cell-based, human
Method: as §1

KB (oral squamous) = format: cell-based, human
Method: as §1

PTC (colon) = format: cell-based, human
Method: as §1

SW620 (colon) = format: cell-based, human
Method: as §1

HeP2 (laryngeal) = format: cell-based
Method: as §1

L132 (Lung) = format: cell-based
Method: as §1

U87MG (Glioblastoma) = format: cell-based
Method: as §1

CCCCCCCC(=O)N[C@H](Cc1ccccc1)C(=O)N[C@@H](CCC(N)=O)C(=O)N[C@@H](Cc1c[nH]c2ccccc12)C(=O)N[C@@H](C)C(=O)N[C@H](C(=O)NC(C)(C)C(=O)N[C@@H](Cc1c[nH]cn1)C(=O)N[C@@H](CC(C)C)C(N)=O)C(C)C [SEQ ID: 12, Octanoyl-D-Phe-Gln-Trp-Ala-Val-Aib-His-Leu-NH2] (Octanoyl-[dF]QWAV[Aib]HL-NH2)
Percentage cytotoxicity (HBL 100 (Breast); HBL100, 10 pM): 29.0 ± 3.8% | Percentage cytotoxicity (HBL 100 (Breast); HBL100, 100 pM): 34.7 ± 2.8% | Percentage cytotoxicity (HBL 100 (Breast); HBL100, 1 nM): 29.6 ± 0.4% | Percentage cytotoxicity (HBL 100 (Breast); HBL100, 10 nM): 27.7 ± 1.5% | Percentage cytotoxicity (HBL 100 (Breast); HBL100, 100 nM): 23.6 ± 2.7% | Percentage cytotoxicity (HBL 100 (Breast); HBL100, 1 μM): 11.8 ± 1.1% | Percentage cytotoxicity (HuTu80 (Stomach); HuTu80, 10 pM): 8.3 ± 1.1% | Percentage cytotoxicity (HuTu80 (Stomach); HuTu80, 100 pM): 13.0 ± 0.7% | Percentage cytotoxicity (HuTu80 (Stomach); HuTu80, 1 nM): 33.1 ± 4.8% | Percentage cytotoxicity (HuTu80 (Stomach); HuTu80, 10 nM): 23.4 ± 0.5% | Percentage cytotoxicity (HuTu80 (Stomach); HuTu80, 100 nM): 21.8 ± 2.1% | Percentage cytotoxicity (HuTu80 (Stomach); HuTu80, 1 μM): 20.0 ± 3.9% | Percentage cytotoxicity (KB (oral squamous); 10 pM): 19.3 ± 2.9% | Percentage cytotoxicity (KB (oral squamous); 100 pM): 19.4 ± 2.9% | Percentage cytotoxicity (KB (oral squamous); 1 nM): 26.6 ± 4.9% | Percentage cytotoxicity (KB (oral squamous); 10 nM): 18.6 ± 2.1% | Percentage cytotoxicity (KB (oral squamous); 100 nM): 11.1 ± 3.1% | Percentage cytotoxicity (KB (oral squamous); 1 μM): 12.4 ± 1.2% | Percentage cytotoxicity (PTC (colon); 10 pM): 19.5 ± 0.8% | Percentage cytotoxicity (PTC (colon); 100 pM): 18.6 ± 2.4% | Percentage cytotoxicity (PTC (colon); 1 nM): 30.1 ± 4.1% | Percentage cytotoxicity (PTC (colon); 10 nM): 20.7 ± 3.8% | Percentage cytotoxicity (PTC (colon); 100 nM): 16.1 ± 2.5% | Percentage cytotoxicity (PTC (colon); 1 μM): 14.4 ± 2.7% | Percentage cytotoxicity (SW620 (colon); SW620, 10 pM): 34.8 ± 0.4% | Percentage cytotoxicity (SW620 (colon); SW620, 100 pM): 38.4 ± 2.8% | Percentage cytotoxicity (SW620 (colon); SW620, 1 nM): 32.2 ± 2.6% | Percentage cytotoxicity (SW620 (colon); SW620, 10 nM): 36.1 ± 1.9% | Percentage cytotoxicity (SW620 (colon); SW620, 100 nM): 25.3 ± 0.6% | Percentage cytotoxicity (SW620 (colon); SW620, 1 μM): 22.6 ± 1.1% | Percentage cytotoxicity (HeP2 (laryngeal); HeP2, 10 pM): 10.0 ± 0.0% | Percentage cytotoxicity (HeP2 (laryngeal); HeP2, 100 pM): 24.4 ± 0.1% | Percentage cytotoxicity (HeP2 (laryngeal); HeP2, 1 nM): 28.9 ± 0.5% | Percentage cytotoxicity (HeP2 (laryngeal); HeP2, 10 nM): 29.2 ± 1.1% | Percentage cytotoxicity (HeP2 (laryngeal); HeP2, 100 nM): 25.6 ± 0.4% | Percentage cytotoxicity (HeP2 (laryngeal); HeP2, 1 μM): 28.7 ± 0.8% | Percentage cytotoxicity (L132 (Lung); L132, 10 pM): 0.0 ± 0.0% | Percentage cytotoxicity (L132 (Lung); L132, 100 pM): 23.1 ± 0.7% | Percentage cytotoxicity (L132 (Lung); L132, 1 nM): 26.7 ± 0.4% | Percentage cytotoxicity (L132 (Lung); L132, 10 nM): 26.4 ± 0.3% | Percentage cytotoxicity (L132 (Lung); L132, 100 nM): 22.0 ± 0.1% | Percentage cytotoxicity (L132 (Lung); L132, 1 μM): 22.2 ± 0.2% | Percentage cytotoxicity (U87MG (Glioblastoma); 10 pM): 13.1 ± 2.2% | Percentage cytotoxicity (U87MG (Glioblastoma); 100 pM): 22.1 ± 3.8% | Percentage cytotoxicity (U87MG (Glioblastoma); 1 nM): 28.3 ± 1.9% | Percentage cytotoxicity (U87MG (Glioblastoma); 10 nM): 27.5 ± 2.9% | Percentage cytotoxicity (U87MG (Glioblastoma); 100 nM): 13.1 ± 2.3% | Percentage cytotoxicity (U87MG (Glioblastoma); 1 μM): 15.4 ± 3.1%

CC(C)C[C@H](NC(=O)[C@H](Cc1c[nH]cn1)NC(=O)C1(NC(=O)[C@@H](NC(=O)[C@H](C)NC(=O)[C@H](Cc2c[nH]c3ccccc23)NC(=O)[C@H](CCC(N)=O)NC(=O)[C@H](N)Cc2ccccc2)C(C)C)CCCC1)C(N)=O [SEQ ID: 10, D-Phe-Gln-Trp-Ala-Val-Ac5c-His-Leu-NH2] (H-[dF]QWAV[Ac5c]HL-NH2; N-terminus assumed)
Percentage cytotoxicity (HBL 100 (Breast); HBL100, 10 pM): 21.1 ± 0.7% | Percentage cytotoxicity (HBL 100 (Breast); HBL100, 100 pM): 16.6 ± 0.1% | Percentage cytotoxicity (HBL 100 (Breast); HBL100, 1 nM): 23.3 ± 1.6% | Percentage cytotoxicity (HBL 100 (Breast); HBL100, 10 nM): 32.9 ± 0.7% | Percentage cytotoxicity (HBL 100 (Breast); HBL100, 100 nM): 21.2 ± 1.7% | Percentage cytotoxicity (HBL 100 (Breast); HBL100, 1 μM): 18.5 ± 1.7% | Percentage cytotoxicity (HuTu80 (Stomach); HuTu80, 10 pM): 13.5 ± 0.8% | Percentage cytotoxicity (HuTu80 (Stomach); HuTu80, 100 pM): 22.9 ± 0.2% | Percentage cytotoxicity (HuTu80 (Stomach); HuTu80, 1 nM): 23.3 ± 2.8% | Percentage cytotoxicity (HuTu80 (Stomach); HuTu80, 10 nM): 20.6 ± 1.7% | Percentage cytotoxicity (HuTu80 (Stomach); HuTu80, 100 nM): 21.0 ± 2.0% | Percentage cytotoxicity (HuTu80 (Stomach); HuTu80, 1 μM): 17.2 ± 1.1% | Percentage cytotoxicity (KB (oral squamous); 10 pM): 19.2 ± 2.9% | Percentage cytotoxicity (KB (oral squamous); 100 pM): 25.0 ± 6.3% | Percentage cytotoxicity (KB (oral squamous); 1 nM): 31.1 ± 4.1% | Percentage cytotoxicity (KB (oral squamous); 10 nM): 27.3 ± 2.7% | Percentage cytotoxicity (KB (oral squamous); 100 nM): 22.0 ± 1.1% | Percentage cytotoxicity (KB (oral squamous); 1 μM): 16.5 ± 0.2% | Percentage cytotoxicity (PTC (colon); 10 pM): 22.2 ± 4.9% | Percentage cytotoxicity (PTC (colon); 100 pM): 21.6 ± 3.1% | Percentage cytotoxicity (PTC (colon); 1 nM): 29.4 ± 2.9% | Percentage cytotoxicity (PTC (colon); 10 nM): 32.5 ± 5.1% | Percentage cytotoxicity (PTC (colon); 100 nM): 29.3 ± 3.2% | Percentage cytotoxicity (PTC (colon); 1 μM): 28.4 ± 3.6% | Percentage cytotoxicity (SW620 (colon); SW620, 10 pM): 16.7 ± 0.2% | Percentage cytotoxicity (SW620 (colon); SW620, 100 pM): 20.9 ± 0.6% | Percentage cytotoxicity (SW620 (colon); SW620, 1 nM): 22.4 ± 1.7% | Percentage cytotoxicity (SW620 (colon); SW620, 10 nM): 25.5 ± 2.8% | Percentage cytotoxicity (SW620 (colon); SW620, 100 nM): 19.4 ± 1.8% | Percentage cytotoxicity (SW620 (colon); SW620, 1 μM): 22.2 ± 2.1% | Percentage cytotoxicity (HeP2 (laryngeal); HeP2, 10 pM): 1.7 ± 0.1% | Percentage cytotoxicity (HeP2 (laryngeal); HeP2, 100 pM): 19.1 ± 0.6% | Percentage cytotoxicity (HeP2 (laryngeal); HeP2, 1 nM): 27.2 ± 2.6% | Percentage cytotoxicity (HeP2 (laryngeal); HeP2, 10 nM): 27.5 ± 2.8% | Percentage cytotoxicity (HeP2 (laryngeal); HeP2, 100 nM): 26.3 ± 1.7% | Percentage cytotoxicity (HeP2 (laryngeal); HeP2, 1 μM): 19.9 ± 1.5% | Percentage cytotoxicity (L132 (Lung); L132, 10 pM): 1.9 ± 0.2% | Percentage cytotoxicity (L132 (Lung); L132, 100 pM): 29.4 ± 1.9% | Percentage cytotoxicity (L132 (Lung); L132, 1 nM): 29.5 ± 2.8% | Percentage cytotoxicity (L132 (Lung); L132, 10 nM): 27.5 ± 2.8% | Percentage cytotoxicity (L132 (Lung); L132, 100 nM): 27.8 ± 2.1% | Percentage cytotoxicity (L132 (Lung); L132, 1 μM): 22.4 ± 1.8% | Percentage cytotoxicity (U87MG (Glioblastoma); 10 pM): 11.6 ± 1.7% | Percentage cytotoxicity (U87MG (Glioblastoma); 100 pM): 16.5 ± 0.5% | Percentage cytotoxicity (U87MG (Glioblastoma); 1 nM): 25.6 ± 2.1% | Percentage cytotoxicity (U87MG (Glioblastoma); 10 nM): 20.0 ± 0.0% | Percentage cytotoxicity (U87MG (Glioblastoma); 100 nM): 15.0 ± 0.5% | Percentage cytotoxicity (U87MG (Glioblastoma); 1 μM): 10.0 ± 0.0%
